Results on two molecules are retold here after patent publication US11802305B2, “Detection processes using sites of chromosome interaction” (Oxford Biodynamics PLC, priority 2015, dated 2023).

For one assay, the system named is MYD88 locus. Particulars: 72 hr treatment with TCP (1 uM), AML cell lines THP-1 and MV4-11, relative to untreated cells.
The conditions of assay [1]: cited from earlier work.

Experimental for MYD88 locus: Two AML (acute myeloid leukemia) cell lines THP-1 and MV4-11 were tested with the above compound. […] The positions across the gene have been created and selected based on restriction sites and other features of detection and primer efficiency and were then analysed for interactions. […] Below are the PCR EpiSwitch™ marker results for the MyD88 locus for cell lines THP-1 and MV4-11. FACS analysis was used to sort for the expression of CD11b± cells, as an indicator of differentiation.
However, epigenetic changes observed for chromosome signatures are clean to follow a binary format of 0 or 1.

Turning to `N[C@@H]1C[C@H]1c1ccccc1` (racemic) [TCP, tranylcypromine], the “fold change at MYD88 locus (GEX and EpiSwitch)” value in the assay with MYD88 locus turned out to be 1.5 fold.

Take `Nc1nc2ccc(OC(F)(F)F)cc2s1` [riluzole]: the “effect on lifespan of ALS patients” value in assay [1] is given as “modest increase in lifespan”.
